Experimental data as given in US4734282A, “Rodenticidal compositions containing 1,4-naphthoquinone derivatives” (priority 1986, dated 1988).
Several values for one entry are separate records, joined by “and”; a condition that tells them apart may be missing. Identical values can stand only once. Like-named read-outs stand apart in the source and are kept apart here.

Experiments:
[1] = test system: vitamin K-dependent carboxylation; assay: in vitro rat hepatic microsomal vitamin K-dependent carboxylation of endogenous substrate, inhibition by vitamin K antagonists; format: biochemical; settings: for Slope (% Inhibition/Concentration), mean ± S.D.: slope parameter s of logistic function; for IO (percent inhibition when C = 0), mean: third fit parameter of logistic function
Procedure: (§1) The procedures for preparation of vitamin K-dependent carboxylase and assay of carboxylation were similar to those described in other laboratories (J. Biol. Chem. 251, 2770-2776; Biochim. Biophys. Acta 499, 181-193). Each animal was studied under both control and inhibitory conditions. The rats were rendered unconscious with nitrogen, the liver was quickly excised and minced in a total volume of 2.0 ml ice cold buffer I (0.25M sucrose, 0.025M imidazole, pH 7.20) per gram of liver. The liver was homogenized using 4 passes of a Teflon pestle (clearance 0.15-0.23 mm; Arthur H. Thomas Co., Philadelphia, Pa.) at 300 rpm. The post-mitochondrial supernatant and microsomal pellet were prepared by a published procedure (J. Biol. Chem. 251, 2770-2776). The microsomal pellet was resuspended in buffer II (0.25 M sucrose, 0.025M imidazole, 0.080M KCl, pH 7.20). This suspension supplied both the enzymes (vitamin K-dependent carboxylase and enzymes for vitamin K biotransformations) and endogenous substrates (precursors of vitamin K-dependent proteins) of interest. Microsomal suspension protein concentration was determined by the method of Bradford (Anal. Biochem. 72, 248-254) as described for Bio-Rad reagent and adjusted to approximately 15 mg/ml in buffer II.
(§2) Control, blank, and experimental reaction mixtures were made for each experiment. Control and blank reaction mixtures were made up with vitamin K and without vitamin K, respectively. Experimental reaction mixtures contained both vitamin K and a vitamin K antagonist. The control reaction mixture contained 3.00 ml of microsomal suspension, 0.81 ml of buffer II, 1.20 ml of an ATP-generating system (final concentrations: 1 mM ATP, 10 mM phosphocreatine, 2.5 mM Mg[acetate]2 ·4H2 O, 20 μg/ml creatine phosphokinase [52 U/ml]), 0.60 ml of NADH (final concentration 2 mM), 0.30 ml of dithiothreitol (final concentration 7 mM) dissolved in buffer II, 0.060 ml of NaH^14 CO3 (1.0 μCi/μl; added 0.5 min prior to reaction initiation), and at the time of reaction initiation 0.030 ml of vitamin K1 (final concentration 20 μg/ml) diluted in 0.85% sodium chloride solution. This vitamin K concentration is associated with maximal in vitro incorporation of added H^14 CO3 into vitamin K-dependent substrate proteins (J. Biol. Chem. 251, 2770-2776). The blank reaction mixture consisted of the same components except that vitamin K was replaced by an equal volume of isotonic saline. The experimental reaction mixtures were made up in the same way as the control reaction mixtures with the exceptions that: (1) a volume of buffer II was replaced by a volume of buffer II containing an inhibitor of vitamin K-dependent carboxylation, and (2) all individual volumes were two-thirds of those in the control reaction mixtures. […] Chloro-K1 was formulated as an oil-in-water emulsion with Tween 80 (5% v/v final concentration), while chloro-K3 was formulated as a suspension in Tween 80 (5% v/v final concentration) (Molecular Pharmacology 10, 373-380).
(§3) Reaction mixtures were incubated for 5 minutes at 100 excursions per minute in a reciprocating shaker water bath at 27° . After addition of vitamin K or saline, serial samples (0.45 ml each) were collected from each control and blank reaction tube at 2, 4, 6, 8, 10, 12, 14, 16, 30, 60, 90, and 120 minutes, and from each experimental reaction tube at 2, 4, 6, 8, 10, 12, 14, and 16 minutes. Each 0.45 ml sample was transferred to a tube containing 1 ml of ice-cold 10% TCA. The TCA-precipitated ^14 C-containing protein pellet was then prepared as previously described (J. Biol. Chem. 251, 2770-2776) and radioactivity was determined in an Intertechnique (Plaisir, France) liquid scintillation spectrometer using the external standard method of quench correction.

[2] = test system: prothrombin complex activity; assay: in vivo prothrombin complex activity (PCA), its degradation and synthesis rate, from prothrombin time; design: species or system rat; settings: for PCA° (steady-state prothrombin complex activity before warfarin) / kd (first-order rate constant for degradation of PCA) / R°Syn (rate of synthesis of PCA): individual pretreated rat; for kd (first-order rate constant for degradation of PCA): after 2 mg/kg i.v. warfarin; for R°Syn (rate of synthesis of PCA): PCA° × kd; for reduction in R°Syn: vs normal rats
[3] = test system: vitamin K-dependent carboxylation; assay: in vitro vitamin K-dependent carboxylation in liver microsomes of pretreated rats; format: biochemical, rat; settings: for Normalized P∞ / V/KM (intrinsic formation rate of carboxylated vitamin K-dependent proteins): individual pretreated rat; for V/KM (intrinsic formation rate of carboxylated vitamin K-dependent proteins): liver microsomes about 22 hours after warfarin
Procedure: as §1, §2
as §3, with “correction. […]” for “correction.”

[4] = test system: prothrombin complex activity; settings: 2 mg/kg sodium warfarin i.v., approximately 19 hours prior to sacrifice; cited from earlier work
rats = settings: cited from earlier work
[5] = percent inhibition of vitamin K-dependent carboxylation vs concentration, logistic fit per animal, vitamin K1 20 μg/ml, 27°, read-out: IC50 (mean ± S.D.)
[6] = range among individual rats, read-out: IC50 (range)

C/C(=C\CC1=C(Cl)C(=O)c2ccccc2C1=O)CCC[C@H](C)CCC[C@H](C)CCCC(C)C [Chloro-K1, 2-Chloro-3-phytyl-1,4-naphthoquinone]
IC50 [1, 5]: 285 ± 89.3 µM | Slope (% Inhibition/Concentration), range ([1]; range among individual rats): 0.469-0.898 % Inhibition/Concentration | IC50 [1, 6]: 171 to 393 µM | Slope (% Inhibition/Concentration), mean ± S.D. [1]: 0.634 ± 0.159 % Inhibition/Concentration

S=C=Nc1cccc2ccccc12 [ANIT, α-naphthylisothiocyanate]
PCA° (steady-state prothrombin complex activity before warfarin) [2]: 56.1% and 56% | kd (first-order rate constant for degradation of PCA) [2]: 3.19e-05 s⁻¹ | R°Syn (rate of synthesis of PCA) [2]: 155 %/day | reduction in R°Syn [2]: approximately 53% | Normalized P∞ [3]: 15.59 dpm ^14 C incorporated/mg prot | V/KM (intrinsic formation rate of carboxylated vitamin K-dependent proteins) [3]: 0.1104 min⁻¹ | increase in normalized P∞ ([3]; one treated rat vs normal): approximately 50%

O=C1C(Cl)=CC(=Nc2ccc(O)cc2)C=C1Cl [2,6-DIP, 2,6-dichloroindophenol sodium]
IC50 [1, 5]: 116 ± 39.2 µM | Slope (% Inhibition/Concentration), range ([1]; range among individual rats): 0.940-1.36 % Inhibition/Concentration | IC50 [1, 6]: 78.1 to 160 µM | Slope (% Inhibition/Concentration), mean ± S.D. [1]: 1.13 ± 0.174 % Inhibition/Concentration

CC(=O)CC(c1ccccc1)c1c(O)c2ccccc2oc1=O (stereo not shown) [Warfarin, warfarin]
Slope (% Inhibition/Concentration), range ([1]; range among individual rats): 0.637-2.20 % Inhibition/Concentration | IO (percent inhibition when C = 0), mean [1]: 8.89 ± 3.77% | IO (percent inhibition when C = 0), mean ([1]; listed as warfarin): 8.9% | IO (percent inhibition when C = 0), range ([1]; third fit parameter, range among rats): 2.74-13.1% | IC50 ([1]; warfarin, logistic fit with IO as third parameter, read-out: IC50 (mean ± S.D.)): 6630 ± 2850 µM | plasma prothrombin complex activity at the time of sacrifice [4]: ~6 % of normal | LD50 (may actually be as high as) (rats; in rats): 10 to 50 mg/kg | LD50 (assumed) (rats; intravenously administered, assumed value): 0.2 mg/kg

O=C1c2ccccc2C(=O)C1c1ccccc1 [Phenindione, phenindione]
IC50 [1, 5]: 19 ± 11.2 µM | Slope (% Inhibition/Concentration), range ([1]; range among individual rats): 0.269-0.963 % Inhibition/Concentration | IC50 [1, 6]: 7.36 to 30.2 µM | Slope (% Inhibition/Concentration), mean ± S.D. [1]: 0.475 ± 0.330 % Inhibition/Concentration

CCC1(c2ccccc2)C(=O)NC(=O)NC1=O [Phenobarbital, Phenobarbital sodium]
PCA° (steady-state prothrombin complex activity before warfarin) [2]: 143.1% and 102.7% | kd (first-order rate constant for degradation of PCA) [2]: 4.31e-05 s⁻¹ and 4.77e-05 s⁻¹ | R°Syn (rate of synthesis of PCA) [2]: 533 %/day and 423 %/day | average increase in PCA° beyond normal rats ([2]; two treated rats vs four normal rats): 38% | average increase in R°Syn beyond normal rats ([2]; two treated rats vs normal rats): 44% | Normalized P∞ [3]: 4.92 dpm ^14 C incorporated/mg prot and 5.86 dpm ^14 C incorporated/mg prot | V/KM (intrinsic formation rate of carboxylated vitamin K-dependent proteins) [3]: 0.1174 min⁻¹ and 0.1586 min⁻¹

Oc1c(Cl)c(Cl)nc(Cl)c1Cl [TCP, 2,3,5,6-Tetrachloropyridin-4-ol]
difference between IC50 of most potent (TCP) and least potent (warfarin) compound [1]: approximately 5,000 fold | IC50 ([1]; as printed in discussion text, read-out: average IC50): 1.23 µM | IC50 [1, 5]: 1.23 ± 0.24 µM | Slope (% Inhibition/Concentration), range ([1]; range among individual rats): 0.734-1.02 % Inhibition/Concentration | IC50 [1, 6]: 0.89 to 1.44 µM | Slope (% Inhibition/Concentration), mean ± S.D. [1]: 0.884 ± 0.117 % Inhibition/Concentration

O=C1C=C(Cl)C(=O)c2ccccc21 [Chloro-K3, 2-chloro-1,4-naphthoquinone]
times more potent than warfarin ([1]; in vitro rat hepatic vitamin K-dependent carboxylation system): 45 times | IC50 [1, 5]: 146 ± 62.1 µM | Slope (% Inhibition/Concentration), range ([1]; range among individual rats): 0.738-1.55 % Inhibition/Concentration | IC50 [1, 6]: 100 to 236 µM | Slope (% Inhibition/Concentration), mean ± S.D. [1]: 1.20 ± 0.340 % Inhibition/Concentration

ClC(Cl)(Cl)Cl [CCl4, carbon tetrachloride]
average turnover time of PCA ([2]; group average): 3.27 ± 1.34 h | biologic half-life of PCA ([2]; group average): 2.27±0.94 hours | kd, average of treated rats ([2]; group average): 9.83e-05 ± 5.43e-05 s⁻¹ | kd (first-order rate constant for degradation of PCA) ([2]; listed as OCl4): 6.92e-05 s⁻¹ and 0.0001609 s⁻¹ and 6.82e-05 s⁻¹ | R°Syn (rate of synthesis of PCA) ([2]; listed as OCl4): 101 %/day and 137 %/day | PCA° (steady-state prothrombin complex activity before warfarin) ([2]; listed as OCl4): 16.9% and 9.9% and 23.4% | reduction in R°Syn [2]: approximately 62% | Normalized P∞ [3]: 6.58 dpm ^14 C incorporated/mg prot and 9.86 dpm ^14 C incorporated/mg prot and 9.04 dpm ^14 C incorporated/mg prot | V/KM (intrinsic formation rate of carboxylated vitamin K-dependent proteins) [3]: 0.0798 min⁻¹ and 0.0944 min⁻¹ and 0.1257 min⁻¹ | reduction in V/KM ([3]; two rats receiving 1.0 ml CCl4/kg): 20-30%
